# Data reported in patent US20100316989A1, “METHOD FOR SCREENING AN […] OF HBV PROLIFERATION BY USING THE INTERACTION BETWEEN HBV CAPSID AND SURFACE PROTEINS BASED ON CELLULAR IMAGING” (KOREA INSTITUTE OF SCIENCE AND TECHNOLOGY, priority 2007, published 2010).
# Experiments:
# [1] = test system: interaction between PreS and capsid protein (PreS-PH / Capsid-GFP) in HEK293T cells; assay type: cell-based; conditions: 50 μM peptide; transfected HEK293T cells; FIG. 6
# [2] = biological target: interaction between capsid protein and PreS protein (Hepatitis B virus genotype D subtype ayw, UniProt P03146, F97I/I116L/INS152DR/S87N/V74N); conditions: serially diluted peptide; Trx-PreS fixed on plate, purified capsid protein; FIG. 5
sequence,measurement,setting,value
RQPTPISPPLRDSHPQAMQWNS (deleted L4b peptide) [PreS derived peptide],location of GFP fluorescence image of Capsid-GFP fusion protein (inhibition of interaction),[1],located not in cell membrane but in cytoplasm of cells
same,inhibition of the interaction between capsid protein and PreS protein (OD490),[2],inhibited the interaction between capsid protein and PreS protein dose-dependently
